Patent US8202904B2, “α-cyano-4-fluoro-3-phenoxybenzyl meta-halo pyrethrate, a process for preparing the same and the uses thereof” (East China Normal University, priority 2007, dated 2012)
In brackets after ≈: the same amount, converted by molar mass. Like-named read-outs stand apart in the source and are kept apart here.

Tests used:
[1] = tested on: Culex pipiens pallens fourth instar wiggler; assay: Killing effect on wiggler, WHO immersing method, LC50; type: in vivo; settings: for LC50: Culex pipiens pallens fourth instar wiggler, immersing method, mortality after 24 hours, 26±1° C.; for Relative toxicity: from wiggler LC50, Cypermethrin = 100
Experimental: The following pyrethrates were tested as representatives according to the method recommended by the World Health Organization (WHO) (Zongbing ZHANG, the assay of toxicity of insecticides, the Science Press, 1988), the commonly used testing breed, Culex pipiens pallens fourth instar wiggler is used as a subject for biological assay, test temperature: 26±1° C., humidity: 70±10%; immersing method: a solution of a certain amount the compound to be tested in acetone was mixed evenly with pure water in the gradually decreasing concentration of 500, 250, 100, 50, 25, 12.5, 6.25, 3.125, 1, 0.5, 0.25, 0.1, 0.05, 0.025, 0.01, 0.005, 0.0025, 0.0001 mg/L, and the mortality of wiggler after 24 hours was calculated and LC50 was calculated to preliminarily evaluate the insecticidal activity. The results were shown in Table I. Compound 1-5 are representative examples of the compound of formula (I) of the present invention: the compounds involved in preparation Example 1-5 were prepared;
At the same time, their relative toxicities were compared with those of Cypermethrin, and Deltamethrin.

[2] = Stability test, ultraviolet lamp irradiation, gas chromatography analysis; type: physicochemical; settings: 0.15 mmol in 50 ml cyclohexane, 500 W ultraviolet lamp, 30 min
Experimental: 0.15 mmol of the compound of Preparation Example 2 (cis-α-cyano-3-phenoxy-4-fluoro-benzyl-2,2-dimethyl-3-(2-chlorovinyl)cyclopropane carboxylate) and 0.15 mmol of the corresponding dichloride compound (cis-α-cyano-3-phenoxy-4-fluoro-benzyl-2,2-dimethyl-3-(2,2-dichlorovinyl)cyclopropane carboxylate) were added to two vessels separately, to which 50 ml of cyclohexane were added separately. They were irradiated by a 500 W ultraviolet lamp for 30 min respectively. Then to each of the vessels were added 0.15 mmol of n-hexane as an internal standard for gas chromatography analysis. […] The photodegradation rate of the former is 1.9 times of that of the latter. That is to say, if the same amounts were used, the residue of the former in the environment is lower than that of the latter.

Molecule `CC1(C)[C@H](/C=C/Cl)[C@@H]1C(=O)OCc1c(F)c(F)cc(F)c1F` (relative stereo) [Compound 6, cis-2,3,5,6-tetrafluoro-4-benzyl-3-(E-2-chlorovinyl)-2,2-dimethylcyclopropane carboxylate] has an LC50 [1] of 0.4810 mg/L (≈ 1.43 µM) and a Relative toxicity [1] of 2.

`CC1(C)[C@H](C=CBr)[C@H]1C(=O)OC(C#N)c1ccc(F)c(Oc2ccccc2)c1` (stereo partly drawn) [Compound 4, (1R)-Trans-α-cyano-3-phenoxy-4-fluoro-benzyl-2,2-dimethyl-3-(2-bromovinyl)cyclopropane carboxylate] gave an LC50 ([1]; read-out: LC50) of 0.0027 mg/L (≈ 0.00608 µM) and a Relative toxicity [1] of 393.

For `CC1(C)[C@@H](C=CCl)[C@@H]1C(=O)OC(C#N)c1cccc(Oc2ccccc2)c1` (relative stereo) [Compound 13, trans-α-cyano-3-phenoxybenzyl-2,2-dimethyl-3-(2-chlorovinyl)cyclopropane carboxylate], the LC50 ([1]; read-out: LC50) was 0.0527 mg/L (≈ 0.138 µM) and the Relative toxicity [1] was 20.

In the case of `CC1(C)[C@H](/C=C/F)[C@@H]1C(=O)OC(C#N)c1ccc(F)c(Oc2ccccc2)c1` (relative stereo) [Compound 5, cis-α-cyano-3-phenoxy-4-fluoro-benzyl-2,2-dimethyl-3-(E-2-fluorovinyl)cyclopropane carboxylate], the LC50 ([1]; read-out: LC50) is reported as 0.00061 mg/L (≈ 0.00159 µM) and the Relative toxicity [1] is reported as 1740.

`CC1(C)[C@@H](C=CCl)[C@@H]1C(=O)OCc1c(F)c(F)c(F)c(F)c1F` (relative stereo) [Compound 11, trans-pentafluorobenzyl-3-(2-chlorovinyl)-2,2-dimethyl cyclopropane carboxylate] showed an LC50 [1] of 0.2041 mg/L (≈ 0.575 µM) and a Relative toxicity [1] of 5.

Molecule `Cc1c(F)c(F)c(COC(=O)[C@H]2[C@@H](/C=C/Cl)C2(C)C)c(F)c1F` (relative stereo) [Compound 7, cis-2,3,5,6-tetrafluoro-4-methyl benzyl-3-(E-2-chlorovinyl)-2,2-dimethylcyclopropane carboxylate] has an LC50 [1] of 0.0741 mg/L (≈ 0.211 µM) and a Relative toxicity [1] of 14.

In the case of `CC1(C)C(C=C(Cl)Cl)C1C(=O)OC(C#N)c1cccc(Oc2ccccc2)c1` (stereo not shown) [Cypermethrin], the LC50 ([1]; read-out: LC50) is reported as 0.0106 mg/L (≈ 0.0255 µM) and the Relative toxicity [1] is reported as 100.

With `Cc1c(F)c(F)c(COC(=O)[C@H]2[C@H](C=CCl)C2(C)C)c(F)c1F` (relative stereo) [Compound 10, trans-2,3,5,6-tetrafluoro-4-methylbenzyl-3-(2-chlorovinyl)-2,2-dimethylcyclopropane carboxylate] the LC50 ([1]; read-out: LC50) was 0.0578 mg/L (≈ 0.165 µM) and the Relative toxicity [1] was 18.

`CC1(C)[C@H](C=C(Cl)Cl)[C@@H]1C(=O)OC(C#N)c1ccc(F)c(Oc2ccccc2)c1` (relative stereo) [corresponding dichloride compound, cis-α-cyano-3-phenoxy-4-fluoro-benzyl-2,2-dimethyl-3-(2,2-dichlorovinyl)cyclopropane carboxylate, reference compound] gave a degraded by light [2] of 14%.

Work on `CC1(C)[C@H](C=CBr)[C@@H]1C(=O)OC(C#N)c1cccc(Oc2ccccc2)c1` (relative stereo) [Compound 12, cis-α-cyano-3-phenoxybenzyl-2,2-dimethyl-3-(2-bromovinyl)cyclopropane carboxylate] yielded an LC50 ([1]; read-out: LC50) of 0.0108 mg/L (≈ 0.0253 µM) and a Relative toxicity [1] of 98.

Work on `CC1(C)[C@H](C(=O)O[C@H](C#N)c2cccc(Oc3ccccc3)c2)[C@@H]1C=C(Br)Br` [Deltamethrin] yielded an LC50 ([1]; read-out: LC50) of 0.0012 mg/L (≈ 0.00238 µM) and a Relative toxicity [1] of 883.

For `CC1(C)C(C=CCl)C1C(=O)OC(C#N)c1ccc(F)c(Oc2ccccc2)c1` (mixture of isomers) [Compound 1, cis/trans-α-cyano-3-phenoxy-4-fluoro-benzyl-2,2-dimethyl-3-(E/Z-2-chlorovinyl)cyclopropane carboxylate], the LC50 [1] was 0.00055 mg/L and the Relative toxicity [1] was 1927.

`CC1(C)[C@H](/C=C/Cl)[C@@H]1C(=O)OCc1c(F)c(F)c(F)c(F)c1F` (relative stereo) [Compound 8, cis-pentafluorobenzyl-3-(E-2-chlorovinyl)-2,2-dimethyl cyclopropane carboxylate] gave an LC50 [1] of 0.0801 mg/L (≈ 0.226 µM) and a Relative toxicity [1] of 13.
